Experimental data: patent publication US9315453B2, “4-(3-benzyloxyphenylthio)-2-chloro-1-(3-nitropropyl)benzene crystal” (KYORIN PHARMACEUTICAL CO., LTD., priority 2012, dated 2016)

What was measured:
[1] = Stability test of the crystals under accelerated and long-term storage conditions; assay type: physicochemical; conditions: 6 months after the start of the test, crystals obtained in Example 1
Method: The crystals of the compound 1 obtained in Example 1 were subjected to a stability test under accelerated conditions (40° C./75% RH) and long-term storage conditions (25° C./60% RH).

[2] = accelerated conditions (40° C./75% RH)
[3] = long-term storage conditions (25° C./60% RH)

## O=[N+]([O-])CCCc1ccc(Sc2cccc(OCc3ccccc3)c2)cc1Cl [compound 1, 4-(3-benzyloxyphenylthio)-2-chloro-1-(3-nitropropyl)benzene]
[1]; [2]
  change in the appearance of the crystals: No change in the appearance
  formation of decomposition products: no decomposition products were formed
[1]; [3]
  change in the appearance of the crystals: No change in the appearance
  formation of decomposition products: no decomposition products were formed
other
  melting point: 46 to 47 °C
